How the values were obtained:
[1] = test system: HOX-high AML patient cells; test: Primary chemical screen of 60 compounds, cell dose-response viability assay (CellTiterGlo, 6 days); format: cell-based, human
Procedure: (§1) frozen AML mono-nucleated cells were thawed at 37° C. in Iscove's modified Dulbecco's medium (IMDM) containing 20% FBS and DNase I (100 μg/mL).
(§2) All powders were dissolved in DMSO and diluted in culture medium immediately before use. Final DMSO concentration in all conditions was 0.1%. The 60 compounds were purchased from various suppliers including Santa Cruz, Selleckchem, Calbiochem, AdooQ Bioscience, Cayman chemical and Synkinase.
(§3) Patient cells were seeded in 384-well plates at a density of 5,000 cells in 50 μL per well. In the initial screen, compounds were added to seeded cells in serial dilutions (10 dilutions, 1:3, starting from 10 μM or 20 μM), in duplicates. Cells treated with 0.1% DMSO without additional compound were used as negative controls. Viable cell counts per well were evaluated after 6 days of culture using the CellTiterGlo® assay (Promega®) according to the manufacturer's instruction.
(§4) Using high expression of HOXA9 and HOXA10 as a surrogate for the detection of HOX-network-high patient samples, the survival of HOX-high versus HOX-med/low specimens contacted with 60 inhibitors targeting receptor tyrosine kinases (RTK), members of the RAS and PI3K pathways, was assessed (FIG. 2A, Table 4).

[2] = test system: HOX-med/low AML patient cells; test: as above; format: cell-based, human; details: Homo sapiens, 144 h; primary screen; mean over HOX-med/low patient specimens; 6 days culture; top concentration 10 μM or 20 μM; read-out: MEAN EC50 HOX-med/low
Procedure: as §1, §2, §3, §4

[3] = test system: AML patient specimens; test: Cell dose-response viability assay on AML patient specimens (primary and validation screen); format: cell-based, human; details: Homo sapiens; poor prognostic triple-mutated specimens (FIG. 3G); read-out: median EC50 in AML specimens with simultaneous mutations in NPM1, DNMT3A and FLT3-ITD
Procedure: as §1
as §3, with “instruction. The percent of inhibition was calculated as follows: 100−(100×(mean luminescence(compound)/mean luminescence(DMSO)); where mean-luminescence(compound) corresponds to the average of luminescent signals obtained for the compound-treated cells, and mean-luminescence(DMSO) corresponds to the average of luminescent signals obtained for the control DMSO-treated cells.” for “instruction.”

[4] = test system: Normal primitive CD34-positive cord blood cells; test: cells; details: Homo sapiens, read-out: EC50 in normal primitive CD34-positive cord blood cells
Procedure: as §3, with “instruction. The percent of inhibition was calculated as follows: 100−(100×(mean luminescence(compound)/mean luminescence(DMSO)); where mean-luminescence(compound) corresponds to the average of luminescent signals obtained for the compound-treated cells, and mean-luminescence(DMSO) corresponds to the average of luminescent signals obtained for the control DMSO-treated cells.” for “instruction.”

[5] = test system: OCI-AML3 cells; test: Dose-response curves in AML cell line (6-day culture assay in 384-well plates); format: cell-based; details: FIG. 4E
Procedure: (§5) FIGS. 5A-5J show the results on experiments assessing the mode of action of Mubritinib for mediating tumor cell death. FIG. 5A: OCI-AML3 leukemic cells were either pre-incubated for 4 hours with 6 mM N-acetyl-cysteine (NAC), a reactive oxygen species (ROS) scavenger, or with vehicle (water) before being treated with 100 nM Mubritinib for 24 h or vehicle (DMSO). […] FIGS. 5C and 5D show the levels of reduced and oxidized levels of glutathione, respectively, in OCI-AML3 treated or not with Mubritinib, as detected by liquid chromatography-mass spectrometry (LC/MS). […] FIG. 5G is a graph depicting dose-response curves upon Mubritinib treatment (6-day culture assay in 384-well plates) of OCI-AML3 and OCI-AML5 cell lines. FIGS. 5H-J are graphs depicting dose-response curves following treatment of OCI-AML3 and OCI-AML5 cell lines with other ETC inhibitors, namely Oligomycin (inhibitor of complex V, FIG. 5H), Rotenone (inhibitor of complex I, FIG. 5I) and Deguelin (inhibitor of complex I, FIG. 5J).
OCI-AML3 cells were maintained in alpha-MEM, 20% FBS whereas breat tumor BT474 cells were maintained in DMEM 10% FBS.
as §3, with “instruction. The percent of inhibition was calculated as follows: 100−(100×(mean luminescence(compound)/mean luminescence(DMSO)); where mean-luminescence(compound) corresponds to the average of luminescent signals obtained for the compound-treated cells, and mean-luminescence(DMSO) corresponds to the average of luminescent signals obtained for the control DMSO-treated cells.” for “instruction.”

[6] = test system: OCI-AML3 cells
Procedure: as §5
(§6) Dead cells were stained using Propidium iodide at a final concentration of 1 μg/mL.

[7] = test system: OCI-AML3 leukemic cells; details: 500 nM, 24 h (FIG. 5B)
Procedure: as §5, §6

[8] = test system: OCI-AML3 cells; remark: listed apart in the source
Procedure: LC/MS Metabolite Measurements (Citric Acid Cycle Intermediates and Glutathione) LC/MS metabolite measurements were carried out at the McGill Metabolomics platform. Authentic metabolite standards were purchased from Sigma-Aldrich Co., while the following LC/MS grade solvents and additives were purchased from Fisher: ammonium acetate, formic acid, water, methanol, and acetonitrile. OCI-AML3 cells (5 million cells, quadruplicates, treated with either DMSO or Mubritinib 500 nM for 20 h) were washed twice with ice-cold 150 mM ammonium formate pH 7.2. Metabolites were then extracted using 380 μl of LC/MS grade 50% methanol/50% water mixture and 220 μl of cold acetonitrile. Samples were then homogenized by 1.4 mm ceramic bead beating 2 min at 30 Hz (TissueLyser, Qiagen). A volume of 300 μl of ice-cold water and 600 μl of ice-cold methylene chloride were added to the lysates. Samples were vortexed and allowed to rest on ice for 10 min for phase separation followed by centrifugation at 4,000 rpm for 5 min. The upper aqueous layer was transferred to a fresh pre-chilled tube. Samples were eventually dried by vacuum centrifugation operating at −4° C. (Labconco) and stored at −80° C. until ready for LC-MS/MS data collection. For LC-MS/MS analysis, specimens were first re-suspended in 50 μl of water and clarified by centrifugation for 15 min at 15,000 rpm at 1° C. Samples were maintained at 4° C. for the duration of the LC-MS/MS analysis in the autosampler.

[9] = test system: Complex I enzyme activity in OCI-AML3 cells; details: FIG. 8
Procedure: Complex I activity is determined by following the oxidation of NADH to NAD+ and the simultaneous reduction of a dye which leads to increased absorbance at OD=450 nm.

[10] = molecular target: human epidermal growth factor receptor 2 (ERBB2/HER2) (Homo sapiens, UniProt P04626); details: described in Nagasawa et al.; cited from earlier work
[11] = 500 nM, 24 h, relative to DMSO control

Sequence of human epidermal growth factor receptor 2 (ERBB2/HER2) (P04626 23-1255): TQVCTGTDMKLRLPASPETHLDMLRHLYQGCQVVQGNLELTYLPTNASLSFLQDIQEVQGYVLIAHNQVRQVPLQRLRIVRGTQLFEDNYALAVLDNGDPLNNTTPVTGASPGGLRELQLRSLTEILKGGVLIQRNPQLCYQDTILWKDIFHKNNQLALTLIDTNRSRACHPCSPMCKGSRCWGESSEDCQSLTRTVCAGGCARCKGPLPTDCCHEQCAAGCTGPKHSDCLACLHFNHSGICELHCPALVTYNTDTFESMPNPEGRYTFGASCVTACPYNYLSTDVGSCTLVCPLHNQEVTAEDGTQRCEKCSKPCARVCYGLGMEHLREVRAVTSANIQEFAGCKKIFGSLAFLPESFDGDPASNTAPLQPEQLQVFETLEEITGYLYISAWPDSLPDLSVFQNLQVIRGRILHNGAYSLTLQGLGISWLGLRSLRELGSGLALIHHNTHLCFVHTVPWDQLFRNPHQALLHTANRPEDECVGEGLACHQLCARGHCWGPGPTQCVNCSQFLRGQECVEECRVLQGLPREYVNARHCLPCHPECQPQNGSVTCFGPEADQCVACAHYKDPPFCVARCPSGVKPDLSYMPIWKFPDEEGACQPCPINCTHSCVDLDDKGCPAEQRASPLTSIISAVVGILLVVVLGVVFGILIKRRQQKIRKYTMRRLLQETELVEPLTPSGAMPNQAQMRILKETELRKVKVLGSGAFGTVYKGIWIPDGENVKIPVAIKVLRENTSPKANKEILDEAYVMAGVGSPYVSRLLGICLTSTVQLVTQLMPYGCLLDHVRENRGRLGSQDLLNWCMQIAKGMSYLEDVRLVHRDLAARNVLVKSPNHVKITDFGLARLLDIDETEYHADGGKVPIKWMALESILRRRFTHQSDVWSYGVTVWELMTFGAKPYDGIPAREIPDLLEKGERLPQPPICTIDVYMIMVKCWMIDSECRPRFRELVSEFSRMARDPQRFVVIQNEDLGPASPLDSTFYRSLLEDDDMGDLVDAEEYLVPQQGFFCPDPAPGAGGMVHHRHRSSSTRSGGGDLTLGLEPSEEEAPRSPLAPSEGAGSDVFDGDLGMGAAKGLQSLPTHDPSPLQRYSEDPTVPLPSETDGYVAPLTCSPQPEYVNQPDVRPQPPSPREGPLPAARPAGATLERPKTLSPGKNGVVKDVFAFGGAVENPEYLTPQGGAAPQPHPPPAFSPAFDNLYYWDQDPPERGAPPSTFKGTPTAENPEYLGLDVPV

For `FC(F)(F)c1ccc(/C=C/c2nc(COc3ccc(CCCCn4ccnn4)cc3)co2)cc1` [Mubritinib, 1-(4-{4-[(2-{(E)-2-[4-(trifluoromethyl)phenyl]ethenyl}-1,3-oxazol-4-yl)methoxy]phenyl}butyl)-1H-1,2,3-triazole], the EC50 ([1]; Homo sapiens, 144 h, primary screen, mean over HOX-high patient specimens, 6 days culture, top concentration 10 μM or 20 μM, read-out: MEAN EC50 HOX-high) was 315 nM, the “difference in sensitivity of HOX-high versus HOX-med/low patient cells” value ([1]; primary screen (FIG. 2B)) was “significantly more sensitive” and the “FOLD CHANGE High/Med-low” value ([1]; ratio of mean EC50 HOX-high to mean EC50 HOX-med/low) was 0.2. For the same molecule, the EC50 [2] was 1380 nM, the EC50 [3] was 96 nM and the EC50 [4] was greater than 375 nM. For the same molecule, the “sensitivity of OCI-AML3 cells (dose response curves)” value [5] was “sensitive”, the “Mubritinib-induced apoptosis in the presence of the ROS scavenger N-acetyl-cysteine (NAC)” value ([6]; 4 hours pre-incubation with 6 mM NAC, then 100 nM Mubritinib for 24 h (FIG. 5A)) was “significantly decreased” and the “Annexin V staining (marker of apoptosis)” value ([6]; 24 hours, 100 nM or 10 μM (FIG. 4C)) was “increase in Annexin V staining”. For the same molecule, the “number of dead (PI-positive) cells” value ([6]; 27 hours of treatment, compared to DMSO (FIG. 4B)) was “increase in the number of dead (PI-positive) cells”, the “live cell counts (Propidium Iodide-negative cells)” value ([6]; four days of treatment, different concentrations, dose-dependent (FIG. 4A)) was “reduction of live cell counts” and the “level of ROS activity (hydroxyl, peroxyl) by DCFDA” value [7] was “increased”. The “levels of oxidized glutathione” value [8, 11] was “increased”, the “levels of reduced glutathione” value [8, 11] was “decreased” and the level of citrate ([8]; OCI-AML3, Mubritinib 500 nM for 20 h vs DMSO (FIG. 6A)) was “reduces the levels”. For the same molecule, the level of alpha-ketoglutarate ([8]; OCI-AML3, Mubritinib 500 nM for 20 h vs DMSO (FIG. 6B)) was “reduces the levels”, the level of succinate ([8]; OCI-AML3, Mubritinib 500 nM for 20 h vs DMSO (FIG. 6C)) was “reduces the levels” and the level of fumarate ([8]; OCI-AML3, Mubritinib 500 nM for 20 h vs DMSO (FIG. 6D)) was “reduces the levels”. The level of malate ([8]; OCI-AML3, Mubritinib 500 nM for 20 h vs DMSO (FIG. 6E)) was “reduces the levels”, the “inhibitory effect on complex I in diaphorase-type (NADH oxidation) assay” value [9] was “NADH-independent” and the “inhibition of ERBB2/HER2” value [10] was “potent inhibitor”.

Source: US20200188361A1, “USE OF MITOCHONDRIAL ACTIVITY INHIBITORS FOR THE TREATMENT OF POOR PROGNOSIS ACUTE MYELOID LEUKEMIA” (UNIVERSITE DE MONTREAL, priority 2016, published 2020)
